pEC50: −log10 of the molar value.
Columns and labels:
[1] = In vivo pharmacokinetics (PK) study in mice; details: ICR mice, po 30 mg/kg
Method: ICR mice, weighing 18-20 g, were randomly divided into groups of three mice each after 3 to 5 days' acclimatization, and a series of the compounds were administered intragastrically to each group at a dose of 30 mg/kg. The test animals (ICR mice) were fasted for 12 hours before the administration and fed 4 hours after the administration. They were free to access water before and after the experiment. After the intragastric administration, about 0.1 mL of blood was collected from the orbits. Within 30 minutes after anticoagulation with EDTA-K2, the plasma was separated by centrifugation at 4° C. and 4000 rpm for 10 minutes. Immediately after collecting all plasma, it was stored at −20° C. for testing. 20 μL of the plasma sample to be tested and standard curve sample were pipetted, and then thereto was added 200 μL of an acetonitrile solution containing an internal standard (diazepam 20 mg/mL). The resulting mixture was oscillated and mixed uniformly for 5 min, and then centrifugated at 12000 rpm for 10 min. 75 μL supernatant was pipetted, and 75 μL ultrapure water was added thereto for dilution, and mixed evenly. 1 μL of the resulting solution was pipetted for LC/MS/MS determination.

HBV DNA in HepAD38 cells = assay: In vitro cell HBV DNA inhibitory activity (anti-HBV activity) in HepAD38 cells; assay type: cell-based; details: Hepatitis B virus, 144 h; anti-HBV activity in HepAD38 cells, 6 days treatment, intracellular capsid HBV DNA by qPCR; read-out: EC50
Method: A bottle of HepG2.2.15 or HepAD38 cells in good exponential growth state was taken, washed once by adding 5 mL PBS, and then thereto was added 3 mL trypsin. After digesting at room temperature for 5 min, 2 mL trypsin was discarded, and then the sample was placed in a cell culture incubator and digested for 10 min. The cells were taken out from time to time and observed under a microscope (whether the cells were individually round and there was no adhesion between the cells). 10 mL complete medium was added to terminate the digestion. After pipetting into a single cell suspension, 10 μL of the cell suspension was taken out for cell counting with a cell counter, and then diluted with a complete medium and adjusted to a cell density of 1*10^5 cells/mL. Then the cell suspension was seeded at 1 mL/well in a 24-well plate with a multi-channel pipette (the 24-well plate was coated with 50 μg/mL Collagen I solution in advance), and cultured in a constant temperature CO2 incubator for 48 h.
Different compounds dissolved in DMSO were subjected to two-fold gradient dilution (10 concentrations in total) with complete medium. The compound was added, and fresh medium containing the compound was used to replace the spent medium every 72 hours. The cells were treated with the compound for 6 days. After the supernatant was siphoned off, 300 μL lysate (10 mM Tris-HCl, 1 mM EDTA, and 1% NP-40) was added to each well. After lysing at room temperature for 10 min, DNA was extracted, and HBV DNA in the intracellular viral capsid was measured by real-time fluorescence quantitative PCR. The inhibition rate was calculated based on the Ct value, and the EC50 value was calculated by the four-parameter method.

Cc1c(C(=O)Nc2ccc(F)c(C#N)c2)c(C)n(C)c1C(=O)C(=O)NC(C)(C)C [Example 13, 5-(2-(tert-butylamino)-2-oxoacetyl)-N-(3-cyano-4-fluorophenyl)-1,2,4-trimethyl-1H-pyrrole-3-carboxamide]
Liver AUC(0-6 h) ([1]; 0.25 h, 1 h, 6 h): 5834 ng/g
Plasma AUC(0-6 h) ([1]; blood at 0.25 h, 1 h, 6 h): 1759 ng/mL
Kp ([1]; mouse, liver/blood, AUC(0-6 h), read-out: Liver to blood ratio): 3.32
pEC50 (HBV DNA in HepAD38 cells): > 8.00

From patent US12116356B2, “N-heterocyclic five-membered ring-containing capsid protein assembly inhibitor, pharmaceutical composition thereof, and use thereof” (CHIA TAI TIANQING PHARMACEUTICAL GROUP CO., LTD., priority 2018, dated 2024)
